Data on 20 compounds can be found in patent US7230001B1, “Arylalkane, arylalkene and aryl azaalkane, medicaments containing said compounds and method for the production thereof” (Boehringer Ingelheim Pharma GmbH & Co. KG, priority 1999, dated 2007).

Broadly, the melting point is the temperature, or range, at which the solid turns liquid.

For the compound `Nc1c(Br)cc(C(=O)CCC(=O)N2CCC(N3Cc4cccnc4NC3=O)CC2)cc1Br` [compound 13, 3-{1-[4-(4-amino-3,5-dibromophenyl)-1,4-dioxobutyl]-4-piperidinyl}-3,4-dihydro-2(1H)-pyrido[2,3-d]pyrimidinone], the melting point is greater than 225 °C.
Compound `CC(=O)Nc1ccc(C(=O)CCC(=O)N2CCC(N3Cc4ccccc4NC3=O)CC2)cc1Br` [compound 18, 3-{1-[4-(4-acetylamino-3-bromophenyl)-1,4-dioxobutyl]-4-piperidinyl}-3,4-dihydro-2(1H)-quinazolinone] came in with a melting point of 243 °C.
The result for `CC(=O)Nc1ccc(C(=O)CCC(=O)N2CCC(n3c(=O)[nH]c4ccccc43)CC2)cc1Br` [compound 19, 1-{1-[4-(4-acetylamino-3-bromophenyl)-1,4-dioxobutyl]-4-piperidinyl}-1,3-dihydro-2(2H)-benzimidazolone] reads 128 °C; that for `CC(=O)Nc1ccc(C(=O)CCC(=O)N2CCC(n3cc(-c4ccccc4)[nH]c3=O)CC2)cc1Br` [compound 21, 1-{1-[4-(4-acetylamino-3-bromophenyl)-1,4-dioxobutyl]-4-piperidinyl}-1,3-dihydro-4-phenyl-2(2H)-imidazolone], 243 °C; that for `Nc1ccc(C(=O)CCC(=O)N2CCC(n3cc(-c4ccccc4)[nH]c3=O)CC2)cc1Br` [compound 24, 1-{1-[4-(4-amino-3-bromophenyl)-1,4-dioxobutyl]-4-piperidinyl}-1,3-dihydro-4-phenyl-2(2H)-imidazolone], 267 °C.
With `COc1ccc(C(=O)CCC(=O)N2CCC(N3Cc4ccccc4NC3=O)CC2)cc1` [compound 25, 3,4-dihydro-3-{1-[1,4-dioxo-4-(4-methoxyphenyl)butyl]-4-piperidinyl}-2(1H)-quinazolinone] the figure was 171 to 172 °C; with `O=C(CCC(=O)N1CCC(N2Cc3ccccc3NC2=O)CC1)c1ccc(Cl)cc1` [compound 26, 3,4-dihydro-3-{1-[4-(4-chlorophenyl)-1,4-dioxobutyl]-4-piperidinyl}-2(1H)-quinazolinone], 237 to 238 °C.
For the compound `CNc1ccc(C(=O)CCC(=O)N2CCC(N3Cc4ccccc4NC3=O)CC2)cc1[N+](=O)[O-]` [compound 27, 3,4-dihydro-3-{1-[1,4-dioxo-4-(4-methylamino-3-nitrophenyl)butyl]-4-piperidinyl}-2(1H)-quinazolinone], the melting point was 258 to 259 °C (dec.).
For the compound `O=C(CCC(=O)N1CCC(N2Cc3ccccc3NC2=O)CC1)c1ccc(Cl)c([N+](=O)[O-])c1` [compound 28, 3,4-dihydro-3-{1-[4-(4-chloro-3-nitrophenyl)-1,4-dioxo-butyl]-4-piperidinyl}-2(1H)-quinazolinone], the melting point is 207 to 209 °C.
As for `COc1cc2c(cc1OC)NC(=O)N(C1CCN(C(=O)CCC(=O)c3cc(Br)c(N)c(Br)c3)CC1)C2` [compound 29, 3-{1-[4-(4-amino-3,5-dibromophenyl)-1,4-dioxobutyl]-4-piperidinyl}-3,4-dihydro-6,7-dimethoxy-2(1H)-quinazolinone], the melting point fell in the range of 256 to 258 °C.
Regarding `Nc1c(Br)cc(C(=O)CCC(=O)N2CCC(N3Cc4ccncc4NC3=O)CC2)cc1Br` [compound 42, 3-{1-[4-(4-amino-3,5-dibromophenyl)-1,4-dioxobutyl]-4-piperidinyl}-3,4-dihydro-2(1H)-pyrido[3,4-d]pyrimidinone], the melting point is greater than 250 °C.
In turn, `Nc1c(Br)cc(C(=O)CCC(=O)N2CCC(N3Cc4cnccc4NC3=O)CC2)cc1Br` [compound 43, 3-{1-[4-(4-amino-3,5-dibromophenyl)-1,4-dioxobutyl]-4-piperidinyl}-3,4-dihydro-2(1H)-pyrido[4,3-d]pyrimidinone] displayed a melting point greater than 250 °C.
Take `Nc1c(Br)cc(C(=O)CCC(=O)N2CCN(c3cc4ccccc4[nH]c3=O)CC2)cc1Br` [compound 59, 3-{1-[4-(4-amino-3,5-dibromophenyl)-1,4-dioxobutyl]-4-piperazinyl}-2(1H)-quinolinone]: the melting point was 272 to 274 °C (dec.).
With `Nc1c(Br)cc(C(=O)CCC(=O)N2CCN(c3nc4ccccc4[nH]c3=O)CC2)cc1Br` [compound 61, 3-{1-[4-(4-amino-3,5-dibromophenyl)-1,4-dioxobutyl]-4-piperazinyl}-2(1H)-quinoxalinone] the figure was 246 to 252 °C; with `O=C(CCC(=O)N1CCC(N2Cc3ccccc3NC2=O)CC1)c1ccc(-c2ccccc2)cc1` [compound 62, 3-{1-[4-(4-biphenylyl)-1,4-dioxobutyl]-4-piperidinyl}-3,4-dihydro-2(1H)-quinazolinone], 200 °C; with `Nc1c(Br)cc(CCCC(=O)N2CCC(n3cc(-c4ccccc4)[nH]c3=O)CC2)cc1Br` [compound 64, 1-{1-[4-(4-amino-3,5-dibromophenyl)-1-oxobutyl]-4-piperidinyl}-1,3-dihydro-4-phenyl-2(2H)-imidazolone], 162.5 to 163.5 °C.
With `O=C(CCC(=O)N1CCC(N2Cc3ccccc3NC2=O)CC1)c1cc(Br)cc(Br)c1` [compound 65, 3-{1-[4-(3,5-dibromophenyl)-1,4-dioxobutyl]-4-piperidinyl}-3,4-dihydro-2(1H)-quinazolinone] the figure was 212 to 214 °C; with `COc1ccccc1C(=O)CCC(=O)N1CCC(N2Cc3ccccc3NC2=O)CC1` [compound 66, 3-{1-[1,4-dioxo-4-(2-methoxyphenyl)butyl]-4-piperidinyl}-3,4-dihydro-2(1H)-quinazolinone], 174 to 175 °C.
For the compound `O=C(CCC(=O)N1CCC(N2Cc3ccccc3NC2=O)CC1)c1ccc(F)cc1` [compound 67, 3-{1-[1,4-dioxo-4-(4-fluorophenyl)butyl]-4-piperidinyl}-3,4-dihydro-2(1H)-quinazolinone], the melting point is 164 to 166 °C.
The compound `N#Cc1ccc(C(=O)CCC(=O)N2CCC(N3Cc4ccccc4NC3=O)CC2)cc1` [compound 72, 3-{1-[4-(4-cyanophenyl)-1,4-dioxobutyl]-4-piperidinyl}-3,4-dihydro-2(1H)-quinazolinone] showed a melting point of 191 to 193 °C.
